Assay results: the supplement of paper PMC11061612

How the values were obtained:
Test in all cases: combination Emax (second highest fraction inhibited in the dose matrix, 72 h); higher = more inhibition; extreme values may be limits of the assay
[1] = system: SW13 (Other Solid Carcinomas)
Procedure, shortened: (§1)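 Bliss excess equals the observed combination effect minus the expected value EA + EB − EA·EB, where EA and EB are the effects of each agent alone. Combination Emax is the second-highest inhibition within the matrix. Inhibition was scaled from CellTiter-Glo 2.0 luminescence, with 0 set by vehicle wells and 1 by blank wells, after 72 hours of two-drug dosing of cells plated in 1536-well plates.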

[2] = system: SCC-15 (Oral Cavity Carcinoma)
Procedure, shortened: as §1

[3] = system: NCI-H358 (Lung Adenocarcinoma)
Procedure, shortened: as §1

[4] = system: KYSE-450 (Esophageal Squamous Cell Carcinoma)
Procedure, shortened: as §1

[5] = system: AMO-1 (Plasma Cell Myeloma)
Procedure, shortened: as §1

[6] = system: LU-65 (Non-Small Cell Lung Carcinoma)
Procedure, shortened: as §1

[7] = system: C-4-I (Cervical Carcinoma)
Procedure, shortened: as §1

PWR-1E (Non-Cancerous) = system: PWR-1E (Non-Cancerous)
Procedure, shortened: as §1

[8] = system: KARPAS-299 (T-Cell Non-Hodgkin's Lymphoma)
Procedure, shortened: as §1

[9] = system: KMOE-2 (Acute Myeloid Leukemia)
Procedure, shortened: as §1

UACC-62 (Melanoma) = system: UACC-62 (Melanoma)
Procedure, shortened: as §1

EW-24 (Ewing's Sarcoma) = system: EW-24 (Ewing's Sarcoma)
Procedure, shortened: as §1

[10] = system: TE-1 (Esophageal Squamous Cell Carcinoma)
Procedure, shortened: as §1

[11] = system: NEC8 (Other Solid Carcinomas)
Procedure, shortened: as §1

[12] = system: NUGC-3 (Gastric Carcinoma)
Procedure, shortened: as §1

[13] = system: NCI-H1915 (Non-Small Cell Lung Carcinoma)
Procedure, shortened: as §1

[14] = system: VA-ES-BJ (Other Solid Carcinomas)
Procedure, shortened: as §1

[15] = system: Hs-766T (Pancreatic Carcinoma)
Procedure, shortened: as §1

[16] = system: EoL-1-cell (Acute Myeloid Leukemia)
Procedure, shortened: as §1

[17] = system: HSC-4 (Oral Cavity Carcinoma)
Procedure, shortened: as §1

SMILES	combination Emax [1]	combination Emax [2]	combination Emax [3]	combination Emax [4]	combination Emax [5]	combination Emax [6]	combination Emax [7]	combination Emax (PWR-1E (Non-Cancerous))	combination Emax [8]	combination Emax [9]	combination Emax (UACC-62 (Melanoma))	combination Emax (EW-24 (Ewing's Sarcoma))	combination Emax [10]	combination Emax [11]	combination Emax [12]	combination Emax [13]	combination Emax [14]	combination Emax [15]	combination Emax [16]	combination Emax [17]
CC1(C)CCC(CN2CCN(c3ccc(C(=O)NS(=O)(=O)c4ccc(NCC5CCOCC5)c([N+](=O)[O-])c4)c(Oc4cnc5[nH]ccc5c4)c3)CC2)=C(c2ccc(Cl)cc2)C1 [Venetoclax] + C[C@@H](Nc1cc(F)cc(F)c1)c1cc(C(=O)N(C)C)cc2c(=O)cc(N3CCOCC3)oc12 [AZD8186] (first compound max 1 µM, 7x7, partner max 3 µM)	0.128	0.166	0.149	0.118	0.842	0.199	0.398	0.173	0.829	0.323	0.398	0.26	0.217	0.0292	0.183	0.118	0.149	0.349	1	0.177
CC1(C)CCC(CN2CCN(c3ccc(C(=O)NS(=O)(=O)c4ccc(NCC5CCOCC5)c([N+](=O)[O-])c4)c(Oc4cnc5[nH]ccc5c4)c3)CC2)=C(c2ccc(Cl)cc2)C1 [Venetoclax] + CN(C)CCCOc1ccc(-c2ccc3ncc4c(c3c2)n(C2CCOCC2)c(=O)n4C)cn1 [AZD0156] (first compound max 1 µM, 7x7, partner max 1 µM)	0.465	0.245	0.325	0.15	0.814	0.362	0.269	0.217	0.807	0.207	0.487	0.323	0.098	0.174	0.276	0.285	0.227	0.41	0.986	0.14
COc1nnc2ccc(N3CCC(c4ccc(OCCN5CCN(C)C(=O)[C@H]5C)cc4)CC3)nn12 [AZD5153] + Cc1c2c(nn1C)CSCc1cc(n(C)n1)CSc1cc(c3ccccc3c1)OCCCc1c(C(=O)O)n(C)c3c-2c(Cl)ccc13 [AZD5991] (first compound max 1 µM, 7x7, partner max 1 µM)	0.969	0.436	0.448	0.494	1	0.623	0.933	0.837	0.978	0.936	0.969	0.685	0.511	1	0.519	0.502	0.566	0.459	1	0.199
CN(C)CCCOc1ccc(-c2ccc3ncc4c(c3c2)n(C2CCOCC2)c(=O)n4C)cn1 [AZD0156] + C=CCn1c(=O)c2cnc(Nc3ccc(N4CCN(C)CC4)cc3)nc2n1-c1cccc(C(C)(C)O)n1 [AZD1775] (first compound max 1 µM, partner max 1 µM)	0.147	0.308	0.472	0.583	0.827	0.639	0.755	0.678	0.918	0.854	0.391	0.279	0.627	0.336	0.552	0.563	0.381	0.43	0.996	0.389
NC1(C(=O)N[C@@H](CCO)c2ccc(Cl)cc2)CCN(c2ncnc3[nH]ccc23)CC1 [Capivasertib] + C[C@@H]1COCCN1C2=NC(=NC(=C2)C3(CC3)[S@](=N)(=O)C)C4=C5C=CNC5=NC=C4 [AZD6738] (first compound max 10 µM, 7x7, partner max 10 µM)	0.712	0.601	0.554	0.452	0.903	0.632	0.913	0.947	0.928	0.618	0.568	0.786	0.449	0.799	0.74	0.531	0.729	0.437	1	0.73
COc1nnc2ccc(N3CCC(c4ccc(OCCN5CCN(C)C(=O)[C@H]5C)cc4)CC3)nn12 [AZD5153] + Cn1cnc2c(F)c(Nc3ccc(Br)cc3Cl)c(C(=O)NOCCO)cc21 [Selumetinib] (first compound max 1 µM, 7x7, partner max 10 µM)	0.593	0.584	0.589	0.429	0.928	0.789	0.883	0.777	0.996	1	0.947	0.444	0.601	0.929	0.649	0.732	0.481	0.589	1	0.423
C=CCn1c(=O)c2cnc(Nc3ccc(N4CCN(C)CC4)cc3)nc2n1-c1cccc(C(C)(C)O)n1 [AZD1775] + C[C@@H]1COCCN1C2=NC(=NC(=C2)C3(CC3)[S@](=N)(=O)C)C4=C5C=CNC5=NC=C4 [AZD6738] (first compound max 1 µM, partner max 10 µM)	0.636	0.517	0.732	0.946	0.922	0.884	0.93	0.913	0.965	0.92	0.622	0.652	0.654	0.932	0.834	0.658	0.822	0.643	1	0.662
CC1(C)CCC(CN2CCN(c3ccc(C(=O)NS(=O)(=O)c4ccc(NCC5CCOCC5)c([N+](=O)[O-])c4)c(Oc4cnc5[nH]ccc5c4)c3)CC2)=C(c2ccc(Cl)cc2)C1 [Venetoclax] + C[C@@H]1COCCN1C2=NC(=NC(=C2)C3(CC3)[S@](=N)(=O)C)C4=C5C=CNC5=NC=C4 [AZD6738] (first compound max 1 µM, 7x7, partner max 10 µM)	0.472	0.442	0.731	0.519	0.904	0.652	0.906	0.932	0.954	0.73	0.481	0.731	0.543	0.749	0.711	0.538	0.813	0.565	1	0.601
COc1cccc(OCCCN)c1-c1cc(Nc2cnc(C#N)cn2)n[nH]1 [Prexasertib] + C=CCn1c(=O)c2cnc(Nc3ccc(N4CCN(C)CC4)cc3)nc2n1-c1cccc(C(C)(C)O)n1 [AZD1775] (first compound max 1 µM, partner max 1 µM)	0.526	0.638	0.769	0.999	0.99	0.873	0.962	0.975	0.978	0.992	0.798	0.7	0.763	0.999	0.873	0.749	0.804	0.694	0.998	0.641
CC1(C)CCC(CN2CCN(c3ccc(C(=O)NS(=O)(=O)c4ccc(NCC5CCOCC5)c([N+](=O)[O-])c4)c(Oc4cnc5[nH]ccc5c4)c3)CC2)=C(c2ccc(Cl)cc2)C1 [Venetoclax] + CCN(CCO)CCCOc1ccc2c(Nc3cc(CC(=O)Nc4cccc(F)c4)[nH]n3)ncnc2c1 [AZD2811] (first compound max 1 µM, 7x7, partner max 1 µM)	0.402	0.295	0.276	0.27	0.816	0.249	0.269	0.455	0.818	0.293	0.28	0.457	0.298	0.205	0.298	0.224	0.359	0.291	1	0.203
CC(=O)c1c(C)c2cnc(Nc3ccc(N4CCNCC4)cn3)nc2n(C2CCCC2)c1=O [Palbociclib] + Cn1cnc2c(F)c(Nc3ccc(Br)cc3Cl)c(C(=O)NOCCO)cc21 [Selumetinib] (first compound max 10 µM, 7x7, partner max 10 µM)	0.444	0.232	0.524	0.403	0.557	0.491	0.349	0.142	0.594	1	0.764	0.318	0.383	0.0587	0.533	0.782	0.158	0.465	0.952	0.261
Cn1cnc2c(F)c(Nc3ccc(Br)cc3Cl)c(C(=O)NOCCO)cc21 [Selumetinib] + C[C@@H]1COCCN1C2=NC(=NC(=C2)C3(CC3)[S@](=N)(=O)C)C4=C5C=CNC5=NC=C4 [AZD6738] (first compound max 10 µM, 7x7, partner max 10 µM)	0.628	0.435	0.586	0.356	0.885	0.808	0.908	0.935	0.929	1	0.803	0.667	0.585	0.764	0.666	0.701	0.714	0.567	1	0.595
